Data published in patent US7960549B2, “Solid forms of a chemokine receptor antagonist and methods of use thereof” (priority 2004, dated 2011).
Where a name gives a salt, the structure may show the parent alone.

Assays:
Format in all cases: physicochemical
[1] = Crystallization of the Citrate Salt (Form A exposed to solvent systems under the conditions of Table 9): form(s) obtained
Description: In other particular embodiments, solvents such as ethanol, methanol/heptane, MEK/water, n-propanol, isopropanol, isopropanol/water, acetonitrile/water, or methanol may be used to crystallize Form B. More particularly, Form B may be created by taking samples of Form A and exposing them to one of the solvent systems listed above. […] In each instance, Form A of the Citrate Salt is exposed to a solvent or solvent system under the particular conditions listed in Table 9 to generate the particular form(s) or amorphous Citrate Salt.

[2] = Thermal gravimetric analysis (TGA); conditions: for TGA weight loss of the transition / TGA weight loss transition, interpolated beginning temperature / TGA weight loss transition, temperature of maximum rate of weight loss: sample of the single form (Form H formed from Form E sample); for TGA weight loss transition, interpolated beginning temperature / TGA weight loss transition, temperature of maximum rate of weight loss: ±3° C.
Experimental: Measurements utilizing thermal gravimetric analysis (TGA) are carried out on a T.A. instruments TGAQ500 analyzer. Mass calibration is performed with 10 and 100 mg certified masses. Temperature calibration is performed with Alumel® and nickel standards (Curie points of respectively 154° C. and 354° C.). Samples are exposed to a constant nitrogen stream of 60 ml/min, and temperature ranges from room temperature to 350° C. at a 5° C./min rate. The quantity of product tested is between 2 and 13 mg. The sample is deposited in an open aluminum sample pan, which is itself placed in a platinum pan. The temperatures identified from TGA scans of a particular sample are accurate to within ±3° C. Simultaneous TGA and DSC measurements are carried out using a […] thermal analysis system produced by the […] corporation. A liquid nitrogen cooling system makes it possible to work at temperatures below 20° C. The emitted gases, upon sample heating, are carried by a transfer capillary tube to a Pfeiffer mass spectrometer, the capillary tube heated to 150° C. The mass spectrometer can analyze molecular fragments at <<m/e>> ratios between 1 and 200 uma. A sample with a mass between 1 and 27 mg is contained in an open concave aluminum sample pan (75 μL capacity) exposed to a nitrogen stream. The sample is heated at a rate of 1 or 5° C./min.

[3] = Differential scanning calorimetry (DSC)
Experimental: Differential scanning calorimetry (DSC) analyses are performed using a T.A Instruments Q1000 thermal analyser. Analyses are carried out using nitrogen purge gas flowing at an average rate of 50 ml/min. A mechanical compressor cools the system, and equilibrates the instruments being used at ambient temperature between analyses. […] Energy calibration is performed with a certified indium calibrator (melting enthalpy of 28.45 J/g), applying a heating rate of 5° C./min. The temperatures identified from DSC scans of a particular sample are accurate to within ±3° C. […] Modulated temperature differential scanning calorimetry (MTDSC) is also used since deconvolution of the total heat flow into reversing and non-reversing heat flows allows the transitions to be easily identified. The samples were submitted to the same experimental temperature program: after the equilibration of the sample at −5° C., the samples were heated through a modulated program from −5° C. to 210° C. at a rate of 1° C./min. […] Experiments are performed using crimped aluminium sample pans or open pans in some cases. The quantity of product analysed is typically between 2 and 13 mg.

[4] = Water sorption/desorption cycling (dynamic vapor sorption, DVS) at 25° C., with XRPD before and after; conditions: for XRPD before and after water sorption/desorption cycling: two consecutive cycles, 0% to 90% relative humidity
Experimental: Water sorption measurements are performed on a DVS-1 automated gravimetric vapor sorption analyser (Surface Measurement Systems Ltd., London, UK). The DVS-1 measures the uptake and loss of vapor gravimetrically using a Cahn D200 recording ultra-microbalance with a mass resolution of ±0.1 μg. The relative humidity around the sample is controlled by mixing saturated and dry carrier gas streams using mass flow controllers. The temperature is maintained within ±0.1° C. by enclosing the entire system in a temperature-controlled incubator. A sample size between 15 and 20 mg is used. In general, the error in % (w/w) identified in a tested sample is ±0.1% (w/w).
Two protocols are utilized to operate the DVS. In one protocol, a sample is dried at 0% relative humidity (RH) to remove any surface water present and establish a dry, baseline mass. Next, the sample is exposed to the following relative humidity profile: 0%, 10%, 20%, 30%, 40%, 50%, 60%, 70%, 80%, 90%, 80%, 70%, 60%, 50%, 40%, 30%, 20%, 10%, 0%. In some instances, this profile is repeated, yielding 4 sets of data going up and down in RH. In another protocol, the sample is first equilibrated at 40% RH, then it was exposed to the following relative humidity profile: 40%, 50%, 60%, 70%, 80%, 90%, 100%, 90%, 80%, 70%, 60%, 50% 40% 30%, 20% 10%, 0%, 10%, 20%, 30%, 40%. […] If equilibrium state is not reached, the change in relative humidity took place automatically after 360 or 600 minutes. From the complete moisture sorption and desorption profile, an isotherm is calculated using the DVS Advanced Analysis Suite v3.6. All experiments were performed at 25° C.

[5] = Prolonged exposure to fixed relative humidity or rinsing with water, XRPD before and after; conditions: for crystal form by XRPD after exposure to a relative humidity of 97.5%: month long exposure, ambient temperature
[6] = Controlled temperature (isothermal) X-ray powder diffraction: thermal stability of the crystalline form; conditions: dry nitrogen; for form conversion as the temperature is raised (isothermal XRPD): ambient to 210° C.
Experimental: X-ray powder diffraction (XRPD) is performed on various samples of the Citrate Salt using one of three instruments. XRPD measurements with Instrument 1 utilize a Siemens-Bruker D5000 Matic powder diffractometer with a Bragg-Brentano (vertical θ-2θ configuration) parafocusing geometry. X-rays are produced from a sealed cobalt anode running at 40 kV and 30 mA. Two lines are typically emitted: CoKα1 (λ=1.7890 Å) and CoKα2 (λ=1.7929 Å). An iron β-filter limits the CoKβ (λ=1.6208 Å) radiation to about 1% of the diffracted beam at the detector. The primary beam passes through a parallel plate collimator (0.2 mm Soller slits), then through a divergence slit (0.2 mm). Diffracted X-rays are detected with a Braun 50 M multichannel linear detector having a 10°-wide detection window in angle 2θ. Scans are performed from 1.5° to 50.0° in 2θ, the scan time being 10 to 40 seconds per degree in 2θ. The error in the 2θ locations are typically within ±0.10 degrees.
In Instrument 3, XRPD measurements are performed at different temperatures to elucidate the evolution of crystal structure with temperature. Tests are carried out with a Siemens-Bruker D5000 diffractometer equipped with the Bragg Brentano parafocusing (θ-θ) geometry and an Anton-Paar TTK temperature chamber. Measurements utilize dry nitrogen or nitrogen streams having a particular humidity. The instrument specifications are substantially similar to the Siemens-Bruker D5000 Matic instrument described above (Instrument 1). Temperature is allowed to rise at a rate of 0.05° C./sec. Scans are recorded under the following conditions: a 1.5 to 50.0 degree scan in angle 2θ, 10 to 20 seconds counting time per degree in 2θ. Data are acquired in isotherm mode when the requested temperature is reached.

[7] = heating rate 5° C./min, A, B, H: melting/decomposition, E: loss of water and conversion to Form H, ±3° C.
[8] = sample including Forms A and C, 5° C./min, Form C: conversion to Form A, Form A: melting/decomposition

In the case of `CC(C)(O)c1ccc2c(c1)/C(=C/CCN1CC[C@](O)(c3ccc(Cl)cc3)C(C)(C)C1)c1cccnc1CO2` [Citrate Salt, citrate salt of (S)-4-(4-Chloro-phenyl)-1-{3-[7-(1-hydroxy-1-methyl-ethyl)-11H-10-oxa-1-aza-dibenzo[a,d]cyclohepten-5-ylidene]-propyl}-3,3-dimethyl-piperidin-4-ol], the “Form(s) identified” value ([1]; Crystallization after dissolution THF, followed by a slow evaporation at ambient temperature and atmospheric pressure) is reported as “A + D”, the “Form(s) identified” value ([1]; Crystallization after dissolution at high temperature in THF/water) is reported as “A + C” and the “Form(s) identified” value ([1]; Dissolution at ambient temperature in DMSO/water) is reported as “Amorphous”. The “Form(s) identified” value ([1]; Dissolution in THF/water and azeotropic distillation (isolation in water)) was “Amorphous”, the “Form(s) identified” value ([1]; Dissolution in dichloromethane/methanol, followed by a quick evaporation at ambient temperature and low pressure) was “Amorphous” and the “Form(s) identified” value ([1]; Maturation in THF of Forms A and B at ambient temperature) was “A + C”. For the same molecule, the “Form(s) identified” value ([1]; Maturation in water of the amorphous form at ambient temperature) was “E + F + G”.
With `CC(C)(O)c1ccc2c(c1)/C(=C/CCN1CC[C@](O)(c3ccc(Cl)cc3)C(C)(C)C1)c1cccnc1CO2` [Form B, citrate salt of (S)-4-(4-Chloro-phenyl)-1-{3-[7-(1-hydroxy-1-methyl-ethyl)-11H-10-oxa-1-aza-dibenzo[a,d]cyclohepten-5-ylidene]-propyl}-3,3-dimethyl-piperidin-4-ol] the “TGA weight loss from ambient temperature to about 100° C.” value ([2]; heating rate 5° C./min) was “No weight loss is detected”, the “TGA weight loss of the transition” value ([2]; heating rate 5° C./min) was “about 27.5 % (w/w)” and the “TGA weight loss transition, interpolated beginning temperature” value ([2]; heating rate 5° C./min) was “about 180 °C”. The “TGA weight loss transition, temperature of maximum rate of weight loss” value ([2]; heating rate 5° C./min) was 192 °C, the “DSC endothermic transition, Tmax” value ([3]; heating rate 1° C./min) was 179 °C and the “DSC endothermic transition, interpolated beginning temperature” value ([3]; heating rate 1° C./min) was 174 °C. For the same molecule, the “DSC endothermic transition, Tmax” value [3, 7] was 189 °C, the “DSC endothermic transition, interpolated beginning temperature” value [3, 7] was 184 °C and the “change in moles of water per mole of anhydrous crystal over relative humidity 0% to 90%” value ([4]; 25° C.) was “about 0.4 moles of water per mole of anhydrous crystal”. For the same molecule, the “change in mass as the relative humidity is changed between 0% and 90%” value ([4]; 25° C., dry crystal basis, known to within ±0.1%) was “about 0.9%”, the “XRPD before and after water sorption/desorption cycling” value ([4]; 25° C.) was “no structural change” and the “stability when rinsed with water, XRPD before and after the rinsing” value [5] was “stable to 100% relative humidity”. The “crystal form by XRPD after exposure to a relative humidity of 97.5%” value [5] was “does not change form”.
In the case of `CC(C)(O)c1ccc2c(c1)/C(=C/CCN1CC[C@](O)(c3ccc(Cl)cc3)C(C)(C)C1)c1cccnc1CO2` [Form C, citrate salt of (S)-4-(4-Chloro-phenyl)-1-{3-[7-(1-hydroxy-1-methyl-ethyl)-11H-10-oxa-1-aza-dibenzo[a,d]cyclohepten-5-ylidene]-propyl}-3,3-dimethyl-piperidin-4-ol], the “form conversion as the temperature is raised (isothermal XRPD)” value [6] is reported as “conversion of the Form C crystals to Form A”, the TGA weight loss ([2]; sample including Forms A and C) is reported as “about 8.22 % (w/w)” and the “TGA weight loss, temperature of maximum rate of weight loss” value ([2]; sample including Forms A and C) is reported as 162 °C. The “TGA weight loss, interpolated beginning temperature” value ([2]; sample including Forms A and C, Form C: conversion away from Form C, Form A: decomposition/melting) was 157 °C, the “DSC endothermic transition between Form C and Form A, Tmax” value ([3]; heating rate 20° C./min) was 171 °C and the “DSC endothermic transition between Form C and Form A, interpolated beginning temperature” value ([3]; heating rate 20° C./min) was 165 °C. For the same molecule, the “DSC endothermic transition, Tmax” value [3, 8] was 166 °C, the “DSC endothermic transition, interpolated beginning temperature” value [3, 8] was “about 161 °C” and the “XRPD before and after water sorption/desorption cycling” value ([4]; 25° C.) was “no structural modification”.
With `CC(C)(O)c1ccc2c(c1)/C(=C/CCN1CC[C@](O)(c3ccc(Cl)cc3)C(C)(C)C1)c1cccnc1CO2` [Form E, citrate salt of (S)-4-(4-Chloro-phenyl)-1-{3-[7-(1-hydroxy-1-methyl-ethyl)-11H-10-oxa-1-aza-dibenzo[a,d]cyclohepten-5-ylidene]-propyl}-3,3-dimethyl-piperidin-4-ol] the “form conversion as the temperature is raised (isothermal XRPD)” value [6] was “converts to Form B”, the “loss of stability (lines unique to the form disappear), isothermal XRPD” value ([6]; sample containing Forms E, F, and G, steps of 10° C.) was “above 50 °C” and the “TGA weight loss of the transition” value ([2]; heating rate 5° C./min) was 6.14 % (w/w). The “TGA weight loss transition, interpolated beginning temperature” value ([2]; heating rate 5° C./min) was 52 °C, the “TGA weight loss transition, temperature of maximum rate of weight loss” value ([2]; heating rate 5° C./min) was 64 °C and the “DSC endothermic transition, Tmax” value [3, 7] was 67 °C. The “DSC endothermic transition, interpolated beginning temperature” value [3, 7] was 45 °C, the “DSC endothermic transition, integrated enthalpy change” value ([3]; heating rate 5° C./min, transition 2411, conversion of Form E to Form H) was 178.3 J/g and the “weight change / water uptake between 10% and 90% relative humidity” value ([4]; 25° C.) was “about 2.28 % (w/w)”. The “weight gain / water uptake as relative humidity is increased from 0% to 10%” value ([4]; 25° C.) was “about 5.13 % (w/w)”, the “behaviour under 10% relative humidity (observed at 0% relative humidity)” value ([4]; ambient temperatures) was “fully transforms into form H” and the “XRPD before and after water sorption/desorption cycling” value ([4]; 25° C.) was “a structure corresponding with Form H after the cycling”.
For `CC(C)(O)c1ccc2c(c1)/C(=C/CCN1CC[C@](O)(c3ccc(Cl)cc3)C(C)(C)C1)c1cccnc1CO2` [batch F1], the “stability when rinsed with water, XRPD before and after the rinsing” value [5] was “loss of lines of Form F and diminution of lines of Form G, while the lines of Form E grow”, the “crystal form by XRPD after exposure to a relative humidity of 0%” value ([5]; about one month) was “a mixture of Forms E and B” and the “crystal form by XRPD after exposure to a relative humidity of 97.5%” value [5] was “loss of lines of Form F and diminution of lines of Form G, while the lines of Form E grow”.
